This note sets out measurements from ChEMBL document CHEMBL4665919, “Novel Tricyclic Pyroglutamide Derivatives as Potent RORγt Inverse Agonists Identified using a Virtual Screening Approach” (ACS Med Chem Lett, 2020).

The nature of data set [1]: Half life in rat liver microsomes. Format: ADME, Microsome.
For another data set, the target named is T1, Cytochrome P450 1A2 (Homo sapiens, UniProt P05177).
T1 sequence (P05177 whole entry): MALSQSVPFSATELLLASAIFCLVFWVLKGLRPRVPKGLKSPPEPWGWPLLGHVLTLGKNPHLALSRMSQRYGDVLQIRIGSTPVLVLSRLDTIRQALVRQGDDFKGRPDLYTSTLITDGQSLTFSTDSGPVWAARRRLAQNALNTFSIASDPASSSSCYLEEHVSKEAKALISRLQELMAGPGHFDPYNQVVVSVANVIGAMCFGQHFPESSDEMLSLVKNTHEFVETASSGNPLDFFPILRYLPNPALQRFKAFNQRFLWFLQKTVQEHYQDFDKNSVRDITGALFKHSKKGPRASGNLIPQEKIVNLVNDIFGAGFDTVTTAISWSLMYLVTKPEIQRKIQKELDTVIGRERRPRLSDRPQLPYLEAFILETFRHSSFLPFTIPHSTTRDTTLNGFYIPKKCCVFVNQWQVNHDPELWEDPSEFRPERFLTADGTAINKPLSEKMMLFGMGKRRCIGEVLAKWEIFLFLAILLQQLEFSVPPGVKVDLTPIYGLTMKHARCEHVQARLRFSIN
Description: Inhibition of CYP1A2 (unknown origin). Format: ADME.

A short description of data set [2]: Permeability across basolateral to apical side in human Caco2 cells. Format: ADME, cell-based. The following applies: Caco-2, read-out: permeability.
Data set [3] can be described thus: Half life in mouse liver microsomes. Format: ADME, Microsome.
The target in a further data set is Cytochrome P450 3A4 (Homo sapiens, UniProt P08684). As to the kind of experiment: Inhibition of CYP3A4 (unknown origin). Format: ADME.
Sequence of Cytochrome P450 3A4 (P08684 whole entry): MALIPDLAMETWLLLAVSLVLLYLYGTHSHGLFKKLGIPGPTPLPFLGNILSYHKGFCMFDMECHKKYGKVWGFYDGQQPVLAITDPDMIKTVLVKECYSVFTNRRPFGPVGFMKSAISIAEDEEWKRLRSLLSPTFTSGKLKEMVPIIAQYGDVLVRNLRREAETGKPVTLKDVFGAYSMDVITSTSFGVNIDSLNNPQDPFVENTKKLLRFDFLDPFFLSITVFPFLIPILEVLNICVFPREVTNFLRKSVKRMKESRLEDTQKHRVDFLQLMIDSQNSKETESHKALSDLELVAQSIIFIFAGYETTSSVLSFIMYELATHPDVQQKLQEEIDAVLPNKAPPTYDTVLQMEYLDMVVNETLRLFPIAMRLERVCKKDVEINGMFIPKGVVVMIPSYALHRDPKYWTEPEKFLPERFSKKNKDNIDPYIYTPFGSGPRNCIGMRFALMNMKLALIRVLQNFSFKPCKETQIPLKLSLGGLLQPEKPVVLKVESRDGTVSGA
Data set [4] is described as follows: Oral bioavailability in BALB/c mouse at 4 mg/kg. Format: ADME, organism-based. The following applies: in vivo.
A short description of data set [5]: Protein binding in mouse. Format: ADME, organism-based. The following applies: in vivo.
A short description of data set [6]: Tmax in BALB/c mouse at 4 mg/kg, po. Format: ADME, organism-based. The conditions noted are these: in vivo.
Data set [7] can be described thus: Half life in human liver microsomes. Format: ADME, Microsome.
Data set [8] can be described thus: Kinetic solubility of compound in acetate buffer at pH 4. Format: physicochemical. The following applies: read-out: Kinetic_solubility.
Data set [9] deals with T2, Oxysterols receptor LXR-beta (Homo sapiens, UniProt P55055).
T2 sequence (P55055 whole entry): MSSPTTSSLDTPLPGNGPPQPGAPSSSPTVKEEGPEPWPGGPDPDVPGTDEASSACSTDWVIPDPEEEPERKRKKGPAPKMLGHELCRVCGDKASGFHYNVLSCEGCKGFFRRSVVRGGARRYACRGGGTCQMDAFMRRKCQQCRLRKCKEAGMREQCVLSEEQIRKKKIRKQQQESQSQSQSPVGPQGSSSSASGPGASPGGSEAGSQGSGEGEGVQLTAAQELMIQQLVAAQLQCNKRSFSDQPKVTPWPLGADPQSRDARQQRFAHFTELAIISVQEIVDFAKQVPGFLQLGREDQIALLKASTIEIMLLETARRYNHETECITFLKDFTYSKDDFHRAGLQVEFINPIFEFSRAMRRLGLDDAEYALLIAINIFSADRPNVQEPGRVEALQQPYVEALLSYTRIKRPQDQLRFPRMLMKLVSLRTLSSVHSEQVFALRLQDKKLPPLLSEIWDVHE
Description: Inverse agonist activity at LXRbeta (unknown origin).

A short description of data set [10]: AUC in BALB/c mouse at 4 mg/kg, po measured upto 72 hrs. Format: ADME, organism-based. Also noted: route oral, dose 4 mg/kg, time <=72. The conditions noted are these: in vivo.
A short description of data set [11]: Volume of distribution at steady state in BALB/c mouse at 2 mg/kg, iv. Format: ADME, organism-based. The following applies: in vivo, read-out: Vdss.
Data set [12] addresses T3, Oxysterols receptor LXR-alpha (Homo sapiens, UniProt Q13133).
T3 sequence (Q13133 whole entry): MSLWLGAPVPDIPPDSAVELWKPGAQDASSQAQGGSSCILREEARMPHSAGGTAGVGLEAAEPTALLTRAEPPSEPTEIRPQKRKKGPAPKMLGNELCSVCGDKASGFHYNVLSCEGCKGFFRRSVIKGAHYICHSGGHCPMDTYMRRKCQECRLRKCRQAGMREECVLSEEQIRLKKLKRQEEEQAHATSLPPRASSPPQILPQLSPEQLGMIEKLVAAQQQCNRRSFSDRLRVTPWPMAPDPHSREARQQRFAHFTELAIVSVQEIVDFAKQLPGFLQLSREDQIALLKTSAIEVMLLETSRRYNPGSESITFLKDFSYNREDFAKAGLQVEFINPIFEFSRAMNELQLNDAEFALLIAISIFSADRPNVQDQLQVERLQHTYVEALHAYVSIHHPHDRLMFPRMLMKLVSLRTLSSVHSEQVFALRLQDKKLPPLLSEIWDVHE
Description: Inverse agonist activity at LXRalpha (unknown origin).

The target in data set [13] is T4, Nuclear receptor subfamily 1 group I member 2 (Homo sapiens, UniProt O75469).
T4 sequence (O75469 whole entry): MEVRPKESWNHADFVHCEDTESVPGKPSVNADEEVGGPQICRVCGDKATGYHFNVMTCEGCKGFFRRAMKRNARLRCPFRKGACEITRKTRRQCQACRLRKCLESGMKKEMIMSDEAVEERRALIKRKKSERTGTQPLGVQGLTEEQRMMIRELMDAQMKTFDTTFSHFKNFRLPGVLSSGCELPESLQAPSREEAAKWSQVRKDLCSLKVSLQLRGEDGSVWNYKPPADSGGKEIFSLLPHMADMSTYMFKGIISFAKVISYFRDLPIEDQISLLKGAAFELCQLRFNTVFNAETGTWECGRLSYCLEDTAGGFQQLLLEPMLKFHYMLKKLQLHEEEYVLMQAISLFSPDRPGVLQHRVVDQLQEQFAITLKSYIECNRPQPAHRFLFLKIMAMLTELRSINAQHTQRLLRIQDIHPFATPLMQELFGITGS
Description: Inverse agonist activity at PXR (unknown origin).

The test system of the next data set is HepG2. Description: Cytotoxicity against human HepG2 cells assessed as reduction in cell viability.
A short description of data set [14]: AUC in BALB/c mouse at 2 mg/kg, iv. Further details: dose 2 mg/kg. The conditions noted are these: in vivo. Format: ADME, organism-based.
Data set [15] is described as follows: Kinetic solubility of compound in 0.1 N HCK solvent at pH 1. Format: physicochemical. The following applies: 0.1 N HCl (printed 0.1 N HCK), read-out: Kinetic_solubility.
Data set [16] is described as follows: Drug concentration in BALB/c mouse at 4 mg/kg, po measured upto 24 hrs. The following applies: in vivo, read-out: Drug uptake. Format: ADME, organism-based.
A further data set concerns the target Cytochrome P450 2D6 (Homo sapiens, UniProt P10635). Description: Inhibition of CYP2D6 (unknown origin). Format: ADME.

Sequence of Cytochrome P450 2D6 (P10635 whole entry): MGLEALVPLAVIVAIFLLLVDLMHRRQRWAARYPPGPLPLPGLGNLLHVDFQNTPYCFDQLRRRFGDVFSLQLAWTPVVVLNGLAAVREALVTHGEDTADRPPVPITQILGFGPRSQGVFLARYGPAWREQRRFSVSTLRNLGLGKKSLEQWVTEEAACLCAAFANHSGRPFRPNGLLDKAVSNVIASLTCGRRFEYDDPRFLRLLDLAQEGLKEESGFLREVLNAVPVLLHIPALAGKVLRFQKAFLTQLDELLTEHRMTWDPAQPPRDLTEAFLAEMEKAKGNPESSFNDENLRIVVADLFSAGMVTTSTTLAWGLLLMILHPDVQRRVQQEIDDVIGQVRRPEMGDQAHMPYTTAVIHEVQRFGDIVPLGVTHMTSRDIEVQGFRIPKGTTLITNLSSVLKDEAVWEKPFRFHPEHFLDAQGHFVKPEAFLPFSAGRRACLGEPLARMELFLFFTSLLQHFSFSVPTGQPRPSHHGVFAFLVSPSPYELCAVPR

`CC(C)(O)CN1C(=O)[C@H](F)C[C@H]1C(=O)N1CC[C@@]2(S(=O)(=O)c3ccc(F)cc3)c3ccc(C(F)(C(F)(F)F)C(F)(F)F)cc3CC[C@@H]12`: the half-life in data set [1], in data set [3] and in data set [7] was above 2 h each time. Moreover, the half-maximal inhibitory concentration (IC50) against Cytochrome P450 1A2, against Cytochrome P450 3A4 and against Cytochrome P450 2D6 was above 20 µM throughout. The Papp B→A in data set [2] amounted to 19 ×10⁻⁶ cm/s. The compound further registered a bioavailability in data set [4] of 94%. Besides, the fraction unbound in data set [5] is recorded as 1.3%. Further, the Tmax in [6] was 4.3 h. The solubility kinetic in [8] and in data set [15] was below 1 µg/mL throughout. For the same compound, the EC50 in data set [9] was above 7.5 µM; in data set [12], above 7.5 µM; in data set [13], above 50 µM; in the data set with HepG2, above 100 µM. In [10], this compound had an AUC at 72 h of 43.9 µM·h. The Vd in [11] stood at 2.7 L/kg. Besides, the AUC in [14] came out at 23.7 µM·h. Further, the concentration at 24 h in [16] is 620 nM.
